Literature values in patent US20060122261A1, “[METHOD OF PREPARING LABDANE DITERPENE COMPOSITION, PREFERABLY ISOFORSKOLIN AND DEACETYLFORSKOLIN FROM FORSKOLIN EXTRACT AND THEIR USE FOR PROMOTING LEAN BODY MASS AND OTHER APPLICATIONS]” (priority 2003, published 2006).

Legend:
[1] = Rupp, de Souza, Dohadwalla 1985
[2] = system: adenylate cyclase; details: Rupp, de Souza, Dohadwalla 1985

SMILES	Effectiveness as hypotensive, anti-hypertensive, positive inotropic relative to Forskolin [1]	Effectiveness as adenylate cyclase activator relative to Forskolin [2]
C=C[C@@]1(C)CC(=O)[C@]2(O)[C@@]3(C)[C@@H](O)CCC(C)(C)[C@@H]3[C@H](O)[C@H](O)[C@@]2(C)O1 [7-deacetylforskolin]	equally effective as Forskolin	equally effective as Forskolin
C=C[C@@]1(C)CC(=O)[C@@]2(O)[C@](C)(O1)[C@@H](O)[C@@H](OC(C)=O)C1C(C)(C)CC[C@H](O)[C@@]12C (stereo partly shown) [6-acetyl-7-deacetylforskolin]	equally effective as Forskolin	equally effective as Forskolin
